*1 amine or outer side, *2 acyl side, *3 side chain or, on linkers, in order; H or OH if unused. Where a SMILES comes first, the peptide text is derived from it. Bridges are numbered along the chain shown (N, C = ends). [ ]: non-standard residue; d: D form. Diglycolyl = O=C(COCC(=O)[*:2])[*:1]; Cba = N[C@@H](CC1CCC1)C(=O)O; Nle = CCCC[C@H](N)C(=O)O
Biological target: T1, MDM2 (Homo sapiens, UniProt Q00987)
T1 construct: made in house
Assay: Surface plasmon resonance (SPR) against captured GST-MDM2
Type: binding
Details: SPR Biacore T200, 25 °C, PBS-P+; GST-MDM2 captured via anti-GST antibody on CM5 chip; 2-fold dilutions 250 nM to 3.91 nM; association 250 s, dissociation 400 s
Method: SPR experiments were performed on a Biacore T200 instrument (GE Healthcare) at 25 °C in PBS-P+ buffer (10× stock; Cytiva Life Sciences #28995084). One mL PP 96-well plates (Greiner #780201) were used for dilution directly in the plates. Anti-GST antibody (Cytiva #27457701) was chemically immobilized on a CM5 series S sensor chip (Cytiva Life Sciences #29149604) by EDC/NHS-mediated coupling. For this, an amine coupling kit (Cytiva Life Sciences #BR100633) and the recommended protocol were followed with the following specifications: 20 μg/mL of antibody diluted in 10 mM NaAc pH 5.0 buffer flowed over both flow channels for 600 s (flow rate 10 μL min^–1).
Kinetic measurements consisted of ligand capture of GST-MDM2 (200 nM, 350 s injection, flow rate 10 μL min^–1, stabilization 60 s), followed by injections (association, 250 s; dissociation, 400 s; flow rate, 30 μL min^–1) of decreasing concentrations of compounds (2-fold cascade dilutions from the starting concentration). The chip was regenerated between cycles by one injection of regeneration solution (10 mM glycine-HCl at pH 1.5) for 10 s at a flow rate of 30 μL min^–1, followed by a 120 s stabilization period. Binding was measured as resonance units over time after blank subtraction, and the data were interpreted using Biacore T200 software (version 3.2). The KD values were calculated based on steady-state affinity (1:1 binding). […]
5. Surface Plasmon Resonance Results […]
dotted lines representing the fittings from which the kinetic values are calculated. The compounds […]
shown in Figure 6 are tested at 250 nM (highest concentration) with a 2-fold dilution series until 3.91 nM (lowest concentration).
SPR Curves of compounds 4.1 and 4.4
4.1: Concentrations tested: 125 nM to 3.91 nM (2-fold dilutions) – KD: ND
Supplementary Figure 4. SPR curve of compound 4.1 against MDM2

T1 sequence (Q00987 whole entry, species assumed): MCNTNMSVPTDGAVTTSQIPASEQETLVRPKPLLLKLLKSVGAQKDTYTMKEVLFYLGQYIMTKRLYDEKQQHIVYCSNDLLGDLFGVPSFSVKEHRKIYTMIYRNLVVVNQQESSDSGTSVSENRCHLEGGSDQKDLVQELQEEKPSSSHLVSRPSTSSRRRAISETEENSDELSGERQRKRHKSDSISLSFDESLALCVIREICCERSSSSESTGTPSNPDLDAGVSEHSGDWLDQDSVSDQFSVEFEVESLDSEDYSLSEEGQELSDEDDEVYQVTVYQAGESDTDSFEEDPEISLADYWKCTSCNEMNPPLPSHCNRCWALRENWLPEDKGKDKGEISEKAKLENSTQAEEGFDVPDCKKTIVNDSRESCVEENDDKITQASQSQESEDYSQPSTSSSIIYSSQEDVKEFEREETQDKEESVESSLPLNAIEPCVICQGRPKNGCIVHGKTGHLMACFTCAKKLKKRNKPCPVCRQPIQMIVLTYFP

SMILES | koff [s⁻¹] | kon [M⁻¹ s⁻¹]
CCCC[C@@H]1NC(=O)[C@H](CC2CCC2)NC(=O)[C@H](CCC(N)=O)NC(=O)[C@H](C)NC(=O)[C@H](Cc2c[nH]c3ccccc23)NC(=O)[C@H](Cc2ccc(O)cc2)NC(=O)[C@H](CCC(N)=O)NC(=O)[C@H](CCCC)NC(=O)[C@H](Cc2ccccc2)NC(=O)[C@H]([C@@H](C)O)NC(=O)[C@H](CC(C)C)NC(=O)CNC(=O)COCC(=O)NCCCC[C@@H](C(=O)N[C@@H](CCCNC(=N)N)C(N)=O)NC(=O)CNC(=O)[C@H](CO)NC1=O [1.1 (Cyclic)] (GLTF[Nle]QYWAQ[Cba][Nle]SGKR-NH2; linker N-15 via Diglycolyl; C-terminus assumed) | 0.0024 | 320000
CCCC[C@H](NC(=O)[C@H](CC1CCC1)NC(=O)[C@H](CCC(N)=O)NC(=O)[C@H](C)NC(=O)[C@H](Cc1c[nH]c2ccccc12)NC(=O)[C@H](Cc1ccc(O)cc1)NC(=O)[C@H](CCC(N)=O)NC(=O)[C@H](CCCC)NC(=O)[C@H](Cc1ccccc1)NC(=O)[C@@H](NC(=O)[C@H](CC(C)C)NC(=O)CNC(C)=O)[C@@H](C)O)C(=O)N[C@@H](CO)C(=O)NCC(=O)N[C@@H](CCCNC(=N)N)C(N)=O [1.1 (Linear)] (Ac-GLTF[Nle]QYWAQ[Cba][Nle]SGR-NH2; N-terminus and C-terminus assumed) | 0.0022 | 73000
CCCC[C@H](NC(=O)[C@H](CC1CCC1)NC(=O)[C@H](CCC(N)=O)NC(=O)[C@H](C)NC(=O)[C@H](Cc1c[nH]c2ccccc12)NC(=O)[C@H](Cc1ccc(O)cc1)NC(=O)[C@H](CCC(N)=O)NC(=O)[C@H](CCCC)NC(=O)[C@H](Cc1ccccc1)NC(=O)[C@@H](NC(=O)[C@H](CC(C)C)NC(=O)CNC(=O)CN(CCNC(=O)CN(CCNC(=O)CN(CCNC(=O)CN(CCNC(=O)[C@H](CCCNC(=N)N)NC(=O)COCCOCCNC(=O)[C@H](CCCNC(=N)N)NC(=O)CN(CCNC(=O)CN(CCNC(=O)CN(CCNC(=O)CN(CCNC(=O)CN(CCNC(=O)CN(CCNC(=O)CN(CCNC(=O)CN(CCNC(=O)[C@H](CCCNC(=N)N)NC(C)=O)C(=O)Cn1cnc2c(=O)[nH]c(N)nc21)C(=O)Cn1ccc(N)nc1=O)C(=O)Cn1ccc(N)nc1=O)C(=O)Cn1cnc2c(=O)[nH]c(N)nc21)C(=O)Cn1cc(C)c(=O)[nH]c1=O)C(=O)Cn1cnc2c(N)ncnc21)C(=O)Cn1cnc2c(=O)[nH]c(N)nc21)C(=O)Cn1cnc2c(=O)[nH]c(N)nc21)C(=O)Cn1ccc(N)nc1=O)C(=O)Cn1ccc(N)nc1=O)C(=O)Cn1cc(C)c(=O)[nH]c1=O)C(=O)Cn1cnc2c(N)ncnc21)[C@@H](C)O)C(=O)N[C@@H](CO)C(=O)NCC(=O)NCCN(CC(=O)NCCN(CC(=O)NCCN(CC(=O)NCCN(CC(=O)N[C@@H](CCCNC(=N)N)C(N)=O)C(=O)Cn1ccc(N)nc1=O)C(=O)Cn1cnc2c(=O)[nH]c(N)nc21)C(=O)Cn1cnc2c(=O)[nH]c(N)nc21)C(=O)Cn1ccc(N)nc1=O [1.1 (PNA)] | 0.0014 | 1.9e+06
CCCC[C@H](NC(=O)[C@H](CC(C)C)NC(=O)[C@H](CCC(N)=O)NC(=O)[C@H](C)NC(=O)[C@H](Cc1c[nH]c2ccccc12)NC(=O)[C@H](Cc1ccc(O)cc1)NC(=O)[C@H](CCC(N)=O)NC(=O)[C@H](CCCC)NC(=O)[C@H](Cc1ccccc1)NC(=O)[C@@H](NC(=O)[C@H](CC(C)C)NC(=O)CNC(=O)CN(CCNC(=O)CN(CCNC(=O)CN(CCNC(=O)CN(CCNC(=O)[C@H](CCCNC(=N)N)NC(=O)COCCOCCNC(=O)[C@H](CCCNC(=N)N)NC(=O)CN(CCNC(=O)CN(CCNC(=O)CN(CCNC(=O)CN(CCNC(=O)CN(CCNC(=O)CN(CCNC(=O)CN(CCNC(=O)CN(CCNC(=O)[C@H](CCCNC(=N)N)NC(C)=O)C(=O)Cn1cnc2c(=O)[nH]c(N)nc21)C(=O)Cn1ccc(N)nc1=O)C(=O)Cn1ccc(N)nc1=O)C(=O)Cn1cnc2c(=O)[nH]c(N)nc21)C(=O)Cn1cc(C)c(=O)[nH]c1=O)C(=O)Cn1cnc2c(N)ncnc21)C(=O)Cn1cnc2c(=O)[nH]c(N)nc21)C(=O)Cn1cnc2c(=O)[nH]c(N)nc21)C(=O)Cn1ccc(N)nc1=O)C(=O)Cn1ccc(N)nc1=O)C(=O)Cn1cc(C)c(=O)[nH]c1=O)C(=O)Cn1cnc2c(N)ncnc21)[C@@H](C)O)C(=O)N[C@@H](CO)C(=O)NCC(=O)NCCN(CC(=O)NCCN(CC(=O)NCCN(CC(=O)NCCN(CC(=O)N[C@@H](CCCNC(=N)N)C(N)=O)C(=O)Cn1ccc(N)nc1=O)C(=O)Cn1cnc2c(=O)[nH]c(N)nc21)C(=O)Cn1cnc2c(=O)[nH]c(N)nc21)C(=O)Cn1ccc(N)nc1=O [2.1 (PNA)] | 0.0021 | 1e+06

Further lines, results first:

koff [s⁻¹] | kon [M⁻¹ s⁻¹] | SMILES
0.002 | 1.2e+06 | CCCC[C@H](NC(=O)[C@H](CC1CCC1)NC(=O)[C@H](CCC(N)=O)NC(=O)[C@H](C)NC(=O)[C@H](Cc1c[nH]c2ccccc12)NC(=O)[C@H](Cc1ccc(O)cc1)NC(=O)[C@H](CCC(N)=O)NC(=O)[C@H](CCCC)NC(=O)[C@H](Cc1ccc(F)c(F)c1)NC(=O)[C@@H](NC(=O)[C@H](CC(C)C)NC(=O)CNC(=O)CN(CCNC(=O)CN(CCNC(=O)CN(CCNC(=O)CN(CCNC(=O)[C@H](CCCNC(=N)N)NC(=O)COCCOCCNC(=O)[C@H](CCCNC(=N)N)NC(=O)CN(CCNC(=O)CN(CCNC(=O)CN(CCNC(=O)CN(CCNC(=O)CN(CCNC(=O)CN(CCNC(=O)CN(CCNC(=O)CN(CCNC(=O)[C@H](CCCNC(=N)N)NC(C)=O)C(=O)Cn1cnc2c(=O)[nH]c(N)nc21)C(=O)Cn1ccc(N)nc1=O)C(=O)Cn1ccc(N)nc1=O)C(=O)Cn1cnc2c(=O)[nH]c(N)nc21)C(=O)Cn1cc(C)c(=O)[nH]c1=O)C(=O)Cn1cnc2c(N)ncnc21)C(=O)Cn1cnc2c(=O)[nH]c(N)nc21)C(=O)Cn1cnc2c(=O)[nH]c(N)nc21)C(=O)Cn1ccc(N)nc1=O)C(=O)Cn1ccc(N)nc1=O)C(=O)Cn1cc(C)c(=O)[nH]c1=O)C(=O)Cn1cnc2c(N)ncnc21)[C@@H](C)O)C(=O)N[C@@H](CO)C(=O)NCC(=O)NCCN(CC(=O)NCCN(CC(=O)NCCN(CC(=O)NCCN(CC(=O)N[C@@H](CCCNC(=N)N)C(N)=O)C(=O)Cn1ccc(N)nc1=O)C(=O)Cn1cnc2c(=O)[nH]c(N)nc21)C(=O)Cn1cnc2c(=O)[nH]c(N)nc21)C(=O)Cn1ccc(N)nc1=O [1.2 (PNA)]
0.0029 | 830000 | CCCC[C@H](NC(=O)[C@H](CC(C)C)NC(=O)[C@H](CCC(N)=O)NC(=O)[C@H](C)NC(=O)[C@H](Cc1c[nH]c2ccccc12)NC(=O)[C@H](Cc1ccc(O)cc1)NC(=O)[C@H](CCC(N)=O)NC(=O)[C@H](CCCC)NC(=O)[C@H](Cc1ccc(F)c(F)c1)NC(=O)[C@@H](NC(=O)[C@H](CC(C)C)NC(=O)CNC(=O)CN(CCNC(=O)CN(CCNC(=O)CN(CCNC(=O)CN(CCNC(=O)[C@H](CCCNC(=N)N)NC(=O)COCCOCCNC(=O)[C@H](CCCNC(=N)N)NC(=O)CN(CCNC(=O)CN(CCNC(=O)CN(CCNC(=O)CN(CCNC(=O)CN(CCNC(=O)CN(CCNC(=O)CN(CCNC(=O)CN(CCNC(=O)[C@H](CCCNC(=N)N)NC(C)=O)C(=O)Cn1cnc2c(=O)[nH]c(N)nc21)C(=O)Cn1ccc(N)nc1=O)C(=O)Cn1ccc(N)nc1=O)C(=O)Cn1cnc2c(=O)[nH]c(N)nc21)C(=O)Cn1cc(C)c(=O)[nH]c1=O)C(=O)Cn1cnc2c(N)ncnc21)C(=O)Cn1cnc2c(=O)[nH]c(N)nc21)C(=O)Cn1cnc2c(=O)[nH]c(N)nc21)C(=O)Cn1ccc(N)nc1=O)C(=O)Cn1ccc(N)nc1=O)C(=O)Cn1cc(C)c(=O)[nH]c1=O)C(=O)Cn1cnc2c(N)ncnc21)[C@@H](C)O)C(=O)N[C@@H](CO)C(=O)NCC(=O)NCCN(CC(=O)NCCN(CC(=O)NCCN(CC(=O)NCCN(CC(=O)N[C@@H](CCCNC(=N)N)C(N)=O)C(=O)Cn1ccc(N)nc1=O)C(=O)Cn1cnc2c(=O)[nH]c(N)nc21)C(=O)Cn1cnc2c(=O)[nH]c(N)nc21)C(=O)Cn1ccc(N)nc1=O [2.2 (PNA)]

Same assay, conditions: linear peptide without PNA versus PNA-constrained 1.1; 30 versus 0.7 nM

loss of binding [fold] | SMILES
40 | CCCC[C@H](NC(=O)[C@H](CC1CCC1)NC(=O)[C@H](CCC(N)=O)NC(=O)[C@H](C)NC(=O)[C@H](Cc1c[nH]c2ccccc12)NC(=O)[C@H](Cc1ccc(O)cc1)NC(=O)[C@H](CCC(N)=O)NC(=O)[C@H](CCCC)NC(=O)[C@H](Cc1ccccc1)NC(=O)[C@@H](NC(=O)[C@H](CC(C)C)NC(=O)CNC(C)=O)[C@@H](C)O)C(=O)N[C@@H](CO)C(=O)NCC(=O)N[C@@H](CCCNC(=N)N)C(N)=O [1.1 (Linear)] (Ac-GLTF[Nle]QYWAQ[Cba][Nle]SGR-NH2; N-terminus and C-terminus assumed)
